# In the NIST ThermoML archive (doi:10.1016/j.jct.2007.07.002):
# Numbers after ± are expanded uncertainties.
# Conditions: Gas, double Helmholtz acoustic resonator
compound,measurement,setting,value
F[Si](F)(F)F [silicon tetrafluoride],kinematic viscosity,"215 K, 198.15 kPa",1.06e-06 ± 8e-08 m2/s
same,speed of sound,"215 K, 198.15 kPa",136.99 ± 0.1 m/s
same,kinematic viscosity,"215 K, 283.66 kPa",7.32e-07 ± 1.9e-08 m2/s
same,speed of sound,"215 K, 283.66 kPa",135.34 ± 0.045 m/s
same,kinematic viscosity,"215 K, 378.5 kPa",5.24e-07 ± 3e-08 m2/s
same,speed of sound,"215 K, 378.5 kPa",133.42 ± 0.028 m/s
same,kinematic viscosity,"215 K, 461.43 kPa",4.37e-07 ± 2.4e-08 m2/s
same,speed of sound,"215 K, 461.43 kPa",131.7 ± 0.028 m/s
same,kinematic viscosity,"215 K, 551.52 kPa",3.6e-07 ± 5.8e-09 m2/s
same,speed of sound,"215 K, 551.52 kPa",129.72 ± 0.028 m/s
same,kinematic viscosity,"215 K, 649.39 kPa",3.03e-07 ± 3.6e-09 m2/s
same,speed of sound,"215 K, 649.39 kPa",127.46 ± 0.027 m/s
same,kinematic viscosity,"215 K, 746.64 kPa",2.59e-07 ± 3.1e-09 m2/s
same,speed of sound,"215 K, 746.64 kPa",125.06 ± 0.027 m/s
same,kinematic viscosity,"230 K, 271.49 kPa",8.88e-07 ± 6.4e-08 m2/s
same,speed of sound,"230 K, 271.49 kPa",141.02 ± 0.033 m/s
same,kinematic viscosity,"230 K, 424.62 kPa",5.63e-07 ± 4.4e-08 m2/s
same,speed of sound,"230 K, 424.62 kPa",138.59 ± 0.033 m/s
same,kinematic viscosity,"230 K, 578.31 kPa",3.98e-07 ± 8.2e-09 m2/s
same,speed of sound,"230 K, 578.31 kPa",136.01 ± 0.028 m/s
same,kinematic viscosity,"230 K, 742.99 kPa",2.84e-07 ± 1.4e-08 m2/s
same,speed of sound,"230 K, 742.99 kPa",133.07 ± 0.043 m/s
same,kinematic viscosity,"230 K, 897.83 kPa",2.5e-07 ± 6e-09 m2/s
same,speed of sound,"230 K, 897.83 kPa",130.19 ± 0.028 m/s
same,kinematic viscosity,"230 K, 1088.3 kPa",2.9e-07 m2/s
same,speed of sound,"230 K, 1088.3 kPa",126.35 ± 0.16 m/s
same,kinematic viscosity,"230 K, 1251 kPa",1.76e-07 ± 8.4e-09 m2/s
same,speed of sound,"230 K, 1251 kPa",122.68 ± 0.028 m/s
same,kinematic viscosity,"245 K, 248.32 kPa",1.09e-06 ± 9.6e-08 m2/s
same,speed of sound,"245 K, 248.32 kPa",146.4 ± 0.096 m/s
same,kinematic viscosity,"245 K, 393.67 kPa",6.6e-07 ± 1.8e-08 m2/s
same,speed of sound,"245 K, 393.67 kPa",144.55 ± 0.033 m/s
same,kinematic viscosity,"245 K, 542.46 kPa",4.92e-07 ± 2.4e-08 m2/s
same,speed of sound,"245 K, 542.46 kPa",142.59 ± 0.033 m/s
same,kinematic viscosity,"245 K, 703.75 kPa",3.7e-07 ± 1.7e-08 m2/s
same,speed of sound,"245 K, 703.75 kPa",140.39 ± 0.029 m/s
same,kinematic viscosity,"245 K, 873.41 kPa",2.95e-07 ± 3.5e-09 m2/s
same,speed of sound,"245 K, 873.41 kPa",138 ± 0.029 m/s
same,kinematic viscosity,"245 K, 1034.5 kPa",2.46e-07 ± 2.9e-09 m2/s
same,speed of sound,"245 K, 1034.5 kPa",135.63 ± 0.029 m/s
same,kinematic viscosity,"245 K, 1220 kPa",2.08e-07 ± 5.4e-09 m2/s
same,speed of sound,"245 K, 1220 kPa",132.78 ± 0.029 m/s
same,kinematic viscosity,"245 K, 1434.3 kPa",1.74e-07 ± 4e-09 m2/s
same,speed of sound,"245 K, 1434.3 kPa",129.26 ± 0.028 m/s
same,kinematic viscosity,"245 K, 1599.8 kPa",1.55e-07 ± 3.4e-09 m2/s
same,speed of sound,"245 K, 1599.8 kPa",126.37 ± 0.028 m/s
same,kinematic viscosity,"245 K, 1777.8 kPa",1.4e-07 ± 2.2e-09 m2/s
same,speed of sound,"245 K, 1777.8 kPa",123.04 ± 0.039 m/s
same,kinematic viscosity,"245 K, 1958.5 kPa",1.25e-07 ± 1.6e-09 m2/s
same,speed of sound,"245 K, 1958.5 kPa",119.34 ± 0.038 m/s
same,kinematic viscosity,"260 K, 206.14 kPa",1.34e-06 ± 1.4e-07 m2/s
same,speed of sound,"260 K, 206.14 kPa",151.46 ± 0.14 m/s
same,kinematic viscosity,"260 K, 410.06 kPa",7.49e-07 ± 5.2e-08 m2/s
same,speed of sound,"260 K, 410.06 kPa",149.46 ± 0.048 m/s
same,kinematic viscosity,"260 K, 617.98 kPa",4.82e-07 ± 2.6e-08 m2/s
same,speed of sound,"260 K, 617.98 kPa",147.22 ± 0.03 m/s
same,kinematic viscosity,"260 K, 830.76 kPa",3.54e-07 ± 4.3e-09 m2/s
same,speed of sound,"260 K, 830.76 kPa",144.88 ± 0.03 m/s
same,kinematic viscosity,"260 K, 1047.1 kPa",2.74e-07 ± 1.3e-08 m2/s
same,speed of sound,"260 K, 1047.1 kPa",142.41 ± 0.03 m/s
same,kinematic viscosity,"260 K, 1252 kPa",2.3e-07 ± 6.4e-09 m2/s
same,speed of sound,"260 K, 1252 kPa",140.01 ± 0.03 m/s
same,kinematic viscosity,"260 K, 1498.2 kPa",1.91e-07 ± 2.8e-09 m2/s
same,speed of sound,"260 K, 1498.2 kPa",137.01 ± 0.03 m/s
same,kinematic viscosity,"260 K, 1794.3 kPa",1.58e-07 ± 2.6e-09 m2/s
same,speed of sound,"260 K, 1794.3 kPa",133.23 ± 0.032 m/s
same,kinematic viscosity,"260 K, 2026.6 kPa",1.39e-07 ± 8.6e-09 m2/s
same,speed of sound,"260 K, 2026.6 kPa",130.08 ± 0.081 m/s
same,kinematic viscosity,"260 K, 2282.2 kPa",1.25e-07 ± 4e-09 m2/s
same,speed of sound,"260 K, 2282.2 kPa",126.45 ± 0.029 m/s
same,kinematic viscosity,"260 K, 2541.7 kPa",1.1e-07 ± 5e-09 m2/s
same,speed of sound,"260 K, 2541.7 kPa",122.51 ± 0.043 m/s
same,kinematic viscosity,"274.58 K, 524.86 kPa",6.36e-07 ± 4.4e-08 m2/s
same,speed of sound,"274.58 K, 524.86 kPa",153.14 ± 0.07 m/s
same,kinematic viscosity,"274.58 K, 642.96 kPa",5.09e-07 ± 5.4e-08 m2/s
same,speed of sound,"274.58 K, 642.96 kPa",152.03 ± 0.031 m/s
same,kinematic viscosity,"274.58 K, 744.26 kPa",4.24e-07 ± 1.3e-08 m2/s
